Experiments:
ApNEAAT1 (ACYPI008971) = target: T1, ApNEAAT1 (ACYPI008971) (Acyrthosiphon pisum, UniProt A0A8R1W427); assay: competition with radiolabelled proline uptake in Xenopus oocytes; assay type: cell-based; settings: pH 5.5, Na+-free, room temperature, 10 mM competitor
T1 construct: cDNA in pcDNA3.1 or pCS2+, cRNA injected into Xenopus laevis oocytes; SLC36-related AAAP transporter; I161 in TM3
T1 sequence (A0A8R1W427 1-463): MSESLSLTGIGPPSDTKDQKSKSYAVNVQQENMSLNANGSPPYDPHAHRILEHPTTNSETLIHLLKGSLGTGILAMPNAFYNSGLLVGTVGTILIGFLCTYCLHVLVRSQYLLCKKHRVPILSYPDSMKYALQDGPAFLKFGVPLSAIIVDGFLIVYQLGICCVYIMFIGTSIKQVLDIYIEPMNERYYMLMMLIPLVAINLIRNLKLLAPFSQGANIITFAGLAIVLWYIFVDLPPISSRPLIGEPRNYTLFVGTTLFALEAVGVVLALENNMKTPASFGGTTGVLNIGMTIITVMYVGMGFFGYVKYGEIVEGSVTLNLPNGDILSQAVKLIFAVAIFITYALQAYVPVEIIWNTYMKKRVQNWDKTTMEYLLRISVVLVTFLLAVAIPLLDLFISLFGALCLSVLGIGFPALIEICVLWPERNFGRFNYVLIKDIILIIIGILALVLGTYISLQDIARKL

PAT2 (rat slc36a2) [1] = target: T2, PAT2 (rat slc36a2) (Rattus norvegicus, UniProt Q8K415); assay: trans-stimulation of [3H]proline efflux from Xenopus oocytes; assay type: cell-based; parameters: wild type in pSPORT, cRNA injected into Xenopus laevis oocytes; settings: 10 mM extracellular alanine, Na+-free, pH 5.5, 10 min
T2 sequence (Q8K415 whole entry): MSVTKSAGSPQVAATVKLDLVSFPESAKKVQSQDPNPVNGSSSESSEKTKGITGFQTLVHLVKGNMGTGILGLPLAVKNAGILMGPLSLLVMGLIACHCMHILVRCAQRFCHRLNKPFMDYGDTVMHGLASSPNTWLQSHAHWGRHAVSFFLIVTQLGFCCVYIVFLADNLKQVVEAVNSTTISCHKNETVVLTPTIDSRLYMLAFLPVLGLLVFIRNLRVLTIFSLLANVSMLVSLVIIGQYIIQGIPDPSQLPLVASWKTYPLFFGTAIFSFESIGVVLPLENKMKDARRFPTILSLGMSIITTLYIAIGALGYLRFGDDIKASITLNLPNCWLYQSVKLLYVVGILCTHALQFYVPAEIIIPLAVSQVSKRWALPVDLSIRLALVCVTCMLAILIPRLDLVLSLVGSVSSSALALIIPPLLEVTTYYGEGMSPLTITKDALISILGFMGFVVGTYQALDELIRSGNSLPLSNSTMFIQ

PAT2 (rat slc36a2) [2] = target: T2, PAT2 (rat slc36a2); settings: 0.1 to 1 mM proline, Na+-free, pH 5.5, -30 mV; H+ symport
[3] = substrate: O=C(O)[C@@H]1CCCN1; assay: cells, lysate or membranes; settings: pH 5.5, Na+-free, room temperature, 40 min, labelled compound
[4] = also direct uptake at 10 µM (Figure 4A)

C[C@H](N)C(=O)O [Ala, alanine]
% control proline uptake at 10 mM (ApNEAAT1 (ACYPI008971); [4]): smaller dipolar L- and D-amino acids (including proline, alanine, serine, cysteine, and glycine) | trans-stimulation of [3H]proline efflux from Xenopus oocytes (PAT2 (rat slc36a2) [1]): In PAT2-expressing oocytes, alanine trans-stimulation of [3H]proline efflux was evident

N[C@@H](CS)C(=O)O [Cys, cysteine]
% control proline uptake at 10 mM (ApNEAAT1 (ACYPI008971); also trans-stimulates [3H]proline efflux (Figure 4D)): Cysteine is thus demonstrated to be an ApNEAAT1 substrate by its ability to trans-stimulate

O=C(O)[C@H]1CCCN1 [D-proline]
% control proline uptake at 10 mM (ApNEAAT1 (ACYPI008971)): small NEAAs (such as glycine and L- and D-proline, serine, alanine, and cysteine)

O=C(O)[C@@H]1CCCN1 [Pro, proline]
two-electrode voltage clamp of Xenopus oocytes, proline-induced inward current (PAT2 (rat slc36a2) [2]): Proline-associated inward current in PAT2-expressing but not ApNEAAT1-expressing or uninjected (control) oocytes

N[C@@H](CO)C(=O)O [Ser, serine]
% control proline uptake at 10 mM (ApNEAAT1 (ACYPI008971); [4]): smaller dipolar L- and D-amino acids (including proline, alanine, serine, cysteine, and glycine)

C[C@@H](O)[C@H](N)C(=O)O [Thr, threonine]
% control proline uptake at 10 mM (ApNEAAT1 (ACYPI008971); weak): weaker interactions with amino acids of slightly larger side-chain (e.g., threonine)

B1: ApNEAAT1 (ACYPI008971) (Acyrthosiphon pisum) (protein)
chain: MSESLSLTGIGPPSDTKDQKSKSYAVNVQQENMSLNANGSPPYDPHAHRILEHPTTNSETLIHLLKGSLGTGILAMPNAFYNSGLLVGTVGTILIGFLCTYCLHVLVRSQYLLCKKHRVPILSYPDSMKYALQDGPAFLKFGVPLSAIIVDGFLIVYQLGICCVYIMFIGTSIKQVLDIYIEPMNERYYMLMMLIPLVAINLIRNLKLLAPFSQGANIITFAGLAIVLWYIFVDLPPISSRPLIGEPRNYTLFVGTTLFALEAVGVVLALENNMKTPASFGGTTGVLNIGMTIITVMYVGMGFFGYVKYGEIVEGSVTLNLPNGDILSQAVKLIFAVAIFITYALQAYVPVEIIWNTYMKKRVQNWDKTTMEYLLRISVVLVTFLLAVAIPLLDLFISLFGALCLSVLGIGFPALIEICVLWPERNFGRFNYVLIKDIILIIIGILALVLGTYISLQDIARKL
Km [3]: 179 ± 33 µM

From paper PMC6690024, “Trading amino acids at the aphid–Buchnera symbiotic interface” (Proceedings of the National Academy of Sciences of the …, 2019)
